Measured values reported in publication PMC5962959 (ChemMedChem, 2017).
One block for each compound: values may come before it.

Key:
full-length human TSSK2 = target: T1, full-length human TSSK2 (Homo sapiens, UniProt Q96PF2); assay: Mobility shift assay: TSSK2 phosphorylation of 5-FAM-GS peptide; type: biochemical; conditions: for TSSK2 inhibitor confirmed in concentration-response experiments after HTS: HTS at 10 μM, cherry-picked compounds from DMSO stocks; for fold reduction in TSSK2 activity: relative to compound 18
T1 sequence (Q96PF2 1-358): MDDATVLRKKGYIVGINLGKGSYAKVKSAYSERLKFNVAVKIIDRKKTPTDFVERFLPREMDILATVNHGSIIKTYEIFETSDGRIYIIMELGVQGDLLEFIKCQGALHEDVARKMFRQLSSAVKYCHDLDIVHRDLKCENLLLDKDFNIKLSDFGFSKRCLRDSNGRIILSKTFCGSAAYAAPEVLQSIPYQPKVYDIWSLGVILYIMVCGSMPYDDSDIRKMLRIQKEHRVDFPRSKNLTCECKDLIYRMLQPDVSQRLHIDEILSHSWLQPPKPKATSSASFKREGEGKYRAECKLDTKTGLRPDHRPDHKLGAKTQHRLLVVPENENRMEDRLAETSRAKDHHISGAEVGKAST

[1] = tested on: kinases (PKIS profiling panel); conditions: at 100 nM; ref profiling data provided by GSK supporting the PKIS collections; cited from earlier work
[2] = tested on: insulin-like growth factor 1 receptor (IGF-1R); assay: Reported IGF-1R inhibition; type: biochemical
GRK1 = assay: Reported GRK inhibition; type: biochemical; conditions: GRK data ref 10d
[3] = target: focal adhesion kinase (FAK); conditions: patent literature, Supplementary Table 2; ref 13p; cited from earlier work
[4] = tested on: insulin-like growth factor 1 receptor (IGF-1R); conditions: cited from earlier work
LTK = conditions: read-out: LTK IC50; Supplementary Table 2; ref 13a; cited from earlier work
CLK2 = conditions: read-out: CLK2 IC50; Supplementary Table 2; ref 13a; cited from earlier work
insulin receptor = conditions: read-out: insulin receptor IC50; Supplementary Table 2; ref 13a; cited from earlier work
TSSK6 = TSSK6 (Homo sapiens, UniProt Q9BXA6); assay: TSSK family member inhibition, TSSK6; type: biochemical
369 wild-type kinases = assay: Kinome profiling at Reaction Biology Corp.; type: biochemical; conditions: 100 nM
TSSK1 = target: T2, TSSK1 (Homo sapiens, UniProt Q9BXA7); assay: TSSK family member inhibition, TSSK1; type: biochemical
T2 sequence (Q9BXA7 1-367): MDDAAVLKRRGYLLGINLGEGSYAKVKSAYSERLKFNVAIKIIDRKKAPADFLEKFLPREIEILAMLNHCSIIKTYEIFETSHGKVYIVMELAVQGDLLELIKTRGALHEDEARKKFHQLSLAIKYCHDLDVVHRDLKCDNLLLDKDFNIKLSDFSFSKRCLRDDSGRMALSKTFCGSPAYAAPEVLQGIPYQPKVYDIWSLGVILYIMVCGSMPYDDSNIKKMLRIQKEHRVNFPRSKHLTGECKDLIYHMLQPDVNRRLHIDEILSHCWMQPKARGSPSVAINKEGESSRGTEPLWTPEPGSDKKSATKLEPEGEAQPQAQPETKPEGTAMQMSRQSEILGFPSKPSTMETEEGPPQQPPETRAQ

TSSK3 = assay: TSSK family member inhibition, TSSK3; type: biochemical
FLT3 = conditions: ref 13b; cited from earlier work
LRRK2 = conditions: ref 13c; cited from earlier work
Tie2 = conditions: ref 13b; cited from earlier work
[5] = tested on: anaplastic lymphoma kinase (ALK); conditions: cited from earlier work

TSSK6, sequence (Q9BXA6 whole entry): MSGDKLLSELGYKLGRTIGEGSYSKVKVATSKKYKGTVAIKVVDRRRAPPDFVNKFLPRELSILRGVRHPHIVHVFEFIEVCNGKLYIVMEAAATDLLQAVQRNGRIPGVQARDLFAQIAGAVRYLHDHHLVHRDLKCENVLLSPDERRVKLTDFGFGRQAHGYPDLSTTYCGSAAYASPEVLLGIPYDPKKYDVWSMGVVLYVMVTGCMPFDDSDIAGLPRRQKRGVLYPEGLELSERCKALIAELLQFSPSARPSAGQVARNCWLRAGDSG

TSSK2 inhibitor confirmed in concentration-response experiments after HTS (full-length human TSSK2): active
SMILES: CCn1c(-c2nonc2N)nc2c(C#CC(C)(C)O)nc(O[C@@H](CN)c3ccccc3)cc21 [GSK1007102B]

TSSK2 inhibitor confirmed in concentration-response experiments after HTS (full-length human TSSK2): active
SMILES: CC(=O)NCC(=O)N1[C@@H]2CC[C@H]1c1ccc(Nc3ncc(C(F)(F)F)c(NC4CCC4)n3)cc12 [PF-03814735]

fold more potent inhibitors of IGF-1 than of TSSK2 [2]: ≥ 100 fold
SMILES: COc1cc2c(cc1Nc1nc(Nc3ccsc3C(N)=O)c3cc[nH]c3n1)N(C(=O)CN(C)C)CCC2(C)C [Compound 10]
number of kinases inhibited by > 50% [1]: 15 – 20
fold selective for TSSK2 over GRK1 (GRK1): > 5 fold

SMILES: O=c1[nH]c2ccc(Cl)cc2c(N[C@@H]2CN3CCC2CC3)c1-c1nc2ccccc2[nH]1 [CHIR-124]
TSSK2 inhibitor confirmed in concentration-response experiments after HTS (full-length human TSSK2): active

SMILES: CNS(=O)(=O)c1ccccc1Nc1nc(Nc2ccc(N3CCN(C)CC3)cc2OC)ncc1Cl [Compound 18]
FAK IC50 [3]: low nanomolar

SMILES: CNS(=O)(=O)c1ccccc1Nc1nc(Nc2ccc(N3CCN(C)CC3)cc2OC)ncc1Br [Compound 17]
FAK IC50 [3]: low nanomolar
potency for inhibiting IGF-1R ([4]; compared with FAK, ref 13p): substantially less potent

SMILES: COc1cc(N2CCC(O)CC2)ccc1Nc1nc(Nc2ccccc2S(=O)(=O)C(C)C)c2[nH]cnc2n1 [Compound 35]
IC50 (LTK): 20 to 40 nM
IC50 (CLK2): 20 to 40 nM
IC50 (insulin receptor): 20 to 40 nM
IC50 ([4]; read-out: IGF-1R IC50, Supplementary Table 2, ref 13a): 20 to 40 nM

activity at TSSK6 (TSSK6): almost inactive
fold selective for TSSK1 over TSSK6 (TSSK6): ~100,000 fold
fold more potent at inhibiting TSSK1 than TSSK2 (TSSK1): > 40 fold
rank order potency at TSSK isoforms (TSSK1): TSSK1 > TSSK2 > TSSK3 > TSSK6
fold reduction in TSSK2 activity (full-length human TSSK2): < 2 fold
SMILES: CNS(=O)(=O)c1ccccc1Nc1nc(Nc2ccc(C3CCN(C)CC3)cc2OC)ncc1Cl [Compound 19, 2-[[5-chloro-2-[2-methoxy-4-(1-methylpiperidin-4-yl)anilino]pyrimidin-4-yl]amino]-N-methylbenzenesulfonamide]
number of 369 kinases inhibited to a greater extent than TSSK2 (369 wild-type kinases): 62
fold more potent at TSSK1 than TSSK3 (TSSK3): 800 fold

SMILES: COc1cc(N2CCC(N3CCN(C)CC3)CC2)ccc1Nc1ncc(Cl)c(Nc2ccccc2S(=O)(=O)C(C)C)n1 [Compound 22]
activity at FLT3 (FLT3): low nanomolar
activity at LRRK2 (LRRK2): low nanomolar
activity at Tie2 (Tie2): low nanomolar
fold reduction in TSSK2 activity (full-length human TSSK2): ~ 2 fold
activity at ALK [5]: low nanomolar

SMILES: COc1ccc([C@@H]2CC(=O)c3c(O)cc(O[C@@H]4O[C@H](CO[C@@H]5O[C@@H](C)[C@H](O)[C@@H](O)[C@H]5O)[C@@H](O)[C@H](O)[C@H]4O)cc3O2)cc1O [hesperidin]
TSSK2 inhibitor confirmed in concentration-response experiments after HTS (full-length human TSSK2): active
